# Test results from paper PMC12250347, “Calcium-dependent pathway as a primary cause of hypoxic RGC damage in monkey retinal explants” (PLOS One, 2025).
# pIC50: −log10 of the molar value. “Also recorded” adds a separate entry of the source.
# How the values were obtained:
# [1] = tested on: calpain 1 activation and proteolysis of α-spectrin; experiment: Immunoblotting of retinal explants under hypoxia/reoxygenation; format: cell-based, rhesus macaques (Macaca mulatta); details: H16R8
# Experimental: (§1) Retina explant culture was performed as described in our previous report, except for the induction of hypoxia. Briefly, a hypoxic chamber (Coy Laboratory Products, Grass Lake, MI, USA) was controlled at 0.3% oxygen with a 95% N2/5% CO2 gas mixture. Retinas were dissected into fan-shaped explants with 6 or 7 petals (> 5 mm) in HBSS. Each explant was placed with the RGC side facing up on a Millicell organotypic standing insert (0.4 μm, 30 mm diameter, MilliporeSigma) in six-well, culture plates. They were cultured for 2 hr at 37°C under 95% N2/5% CO2 in Neurobasal-A medium supplemented with B27, N2 supplements, 2 mM L-glutamine (Thermo Fisher Scientific, Waltham, MA, USA), and 100 μg/mL primocin (Invivogen, San Diego, CA, USA). Retinal explants were then chamber-cultured under hypoxic conditions for 16 hr in a culture medium with 0.5 mM glucose, under 0.3% oxygen. The retinas were then re-oxygenated for 8 hr in a culture medium with 5.5 mM glucose. Normoxic control retinas were cultured for 24 hr in a culture medium with 5.5 mM glucose. When present, calpain inhibitors (SNJ-1945, PD-151746, C2I, and ABT-957) and cathepsin inhibitors (Odanacatib and SID26681509) in 0.1% DMSO were used at the final concentration of 10 or 100 μM in the medium. BAPTA (Thermo Fisher Scientific) and BAPTA-AM (Thermo Fisher Scientific) were also used at a final concentration of 3 or 10 mM or a final concentration of 100 or 500 μM, respectively.
# (§2) All inhibitors and BAPTA were treated simultaneously with hypoxia induction, and BAPTA-AM treatment was 2 hr before hypoxia induction.
# Each retinal explant was sonicated in RIPA Lysis and Extraction Buffer (Thermo Fisher Scientific), with protease inhibitors cocktail (Complete Mini-EDTA-free; MilliporeSigma). Protein concentrations in lysates were measured by BCA assay (Pierce BCA Protein Assay Kit, Thermo Fisher Scientific) using bovine serum albumin as a standard. For immunoblotting, 5 μg of each sample was loaded and run on 4% to 12% gradient or 10% SDS-PAGE gels (NuPAGE Bis-Tris Protein Gels, Thermo Fisher Scientific) with 2-(N-morpholino)ethanesulfonic acid buffer or 3-(N-morpholino) propanesulfonic acid buffer (Thermo Fisher Scientific). Proteins were then electrotransferred to a polyvinylidene fluoride membrane (MilliporeSigma) at 100 V for 60 min or 1.5 hr. Membranes were then blocked with 5% skim milk in Tris-buffer saline (Bio-Rad Laboratories, Hercules, CA, USA) containing 0.05% Tween 20. Each membrane was probed with primary antibodies against α-spectrin (1:2000 dilution, Enzo Life Sciences, Farmingdale, NY, USA), SBDP150 (1:1000 dilution, Senju Pharmaceutical), calpain 1 (1:1000 dilution, Thermo Fisher Scientific), calpain 2 (1:500, GeneTex, Irvine, CA, USA), cathepsin K (1:500 dilution, Abcam), and β-actin (1:1000 dilution, Merck). For calpain 1, immunoreactivity was visualized using a secondary antibody conjugated to alkaline phosphatase and the AP Conjugate Substrate Kit (Bio-Rad Laboratories). For other proteins, immunoreactivities were visualized using secondary antibodies conjugated with rabbit (Santa Cruz Biotechnology) or mouse horseradish peroxidase enzyme (Cytiva, Wilmington, DE, USA) and ECL Plus detection reagents (Cytiva). Images of the membranes were captured with FluorChem FC2 imager (Cell Biosciences, Santa Clara, CA, USA). The conversion of pro-cathepsin K (38 kDa) to its mature form (27 kDa) was used as an indicator of cathepsin K activation.
# [2] = tested on: calpain-specific SBDP150 in nerve fiber layer (NFL); experiment: SBDP150 immunostaining of flat-mounted retinal explants under hypoxia/reoxygenation; format: cell-based, rhesus macaques (Macaca mulatta); details: H16R8; for Effect on calpain-specific SBDP150-positive staining in NFL: cathepsin inhibitor at 10 or 100 µM
# Experimental: as §1, §2
# Formalin-fixed retinal explants were incubated overnight at −30°C in 1: 4 dilutions of DMSO-ethanol to promote antibody penetration. The explants underwent two cycles of freezing and thawing between −80°C and room temperature in 100% ethanol for 20 min. The retinas were then rehydrated in 70%, 50%, and 15% ethanol and PBS for 20 min each, followed by overnight incubation with 0.2% Triton X-100. The samples were stained with antibodies specific for calpain-specific SBDP150 [8] (1:100 dilution, Senju Pharmaceutical) and β-III tubulin (a neuron marker, 1:500 dilution, Merck). The nerve fiber layer (NFL) was observed approximately 5 mm from the tips of the fan-shaped retinal flat mounts. Confocal images were taken using a model LSM 880 spectral confocal system with a 20x 0.8 NA lens (Carl Zeiss, Oberkochen, Germany).
# [3] = tested on: purified porcine calpain 2; experiment: Calpain-Glo Protease Assay; format: biochemical; details: 5 mM CaCl2, 10 min, room temperature; mean of two experiments
# Excerpt: The porcine kidney was obtained from DART Co., Ltd. as part of a program aimed at the effective utilization of livestock by-products in Hokkaido, Japan. The procurement process followed ethical guidelines from Livestock Industry Bureau MAFF-J (ministry of agriculture, forestry and fisheries of Japan) for farm animal use, ensuring compliance with relevant regulations. Two porcine kidneys were rapidly frozen after removal, trimmed free of excess tissue or renal pelvis, and cut into small pieces (approximately 2 × 2 cm) before they thawed. About 250 g of these pieces were homogenized in 1200 mL of ice-cold 20 mM Tris-HCl (pH 8.0) with 5 mM ethylenediaminetetraacetic acid (EDTA), 0.1% 2-mercaptoethanol (2-ME), 0.1 mg/mL Pefabloc SC (MilliporeSigma, Burlington, MA, USA), 40 µg/mL bestatin, and 4 µg/mL pepstatin in a Waring blender HGBSS (Waring; Stamford, CT, USA) at 19,000 rpm using several bursts of 10 sec each with 20 sec cooling periods between each burst. The homogenate was centrifuged at 25,000 × g for 15 min at 4°C, and the supernatant was filtered through glass wool and a 5 µm filter (Merck) to remove floating lipids. The purification procedure was performed according to the method of Thompson and Goll with some minor modifications: the DEAE-cellulose and the DEAE-TSK ToyoPearl 650S columns were substituted with DEAE sepharose fast flow (Merck) and TSKgel DEAE-5PW (30) (Tosoh; Tokyo, Japan) columns, respectively. After purification, calpain-2 was dialyzed, and glycerol was added for freeze-thaw protection. The final buffer formulation was 20 mM imidazole, 5 mM 2-ME, 1 mM EDTA, 1 mM EGTA, and 20% glycerol.
# For measurement of inhibitory activities against calpains in vitro, Calpain-Glo Protease Assay (Promega; Madison, WI, USA) was performed using human erythrocyte calpain 1 (MilliporeSigma) and purified porcine calpain 2. Briefly, 24 µL of each calpain diluted with 20 mM Tris-HCl (pH 7.4), 1 µL of each inhibitor, and 25 µL of reaction buffer including CaCl2 in a 96-well plate was incubated for 10 min at room temperature. The final concentration of CaCl2 in the reaction solution was 5 mM. The luminescence was measured using a microplate reader (GloMax Discover System; Promega). IC50 values from two independent experiments were averaged.
# [4] = cathepsin inhibitor at 10 or 100 µM
IC50 Porcine Calpain 2 [3],SMILES,"Effect on activation of calpain 1 and proteolysis of α-spectrin (immunoblot) [1, 4]",Effect on calpain-specific SBDP150-positive staining in NFL [2],pIC50 [3],Effect on activation of calpain 1 and proteolysis of α-spectrin (immunoblot) ([1]; calpain inhibitors (SNJ-1945 100 µM)),Effect on calpain-specific SBDP150 staining in NFL (calpain activation) ([2]; calpain inhibitor at 100 µM)
No effect,CC(C)(F)C[C@H](N[C@@H](c1ccc(-c2ccc(S(C)(=O)=O)cc2)cc1)C(F)(F)F)C(=O)NC1(C#N)CC1 [Odanacatib],did not mitigate,Neither Odanacatib nor SID26681509 mitigated the increase,,,
,CCc1ccccc1NC(=O)CSC(=O)NNC(=O)[C@H](Cc1c[nH]c2ccccc12)NC(=O)OC(C)(C)C [SID26681509],did not mitigate,Neither Odanacatib nor SID26681509 mitigated the increase,4.03,,
,COCCOCCOC(=O)N[C@@H](CC(C)C)C(=O)N[C@@H](Cc1ccccc1)C(=O)C(=O)NC1CC1 [SNJ-1945],,,7.14,effectively ameliorated; also recorded: inhibited the autolytic activation of calpain 1; also recorded: nearly completely inhibited calpain-induced proteolysis,demonstrated efficacy in reducing calpain activation
